Earlier results, collected in patent US20190289847A1, “SUSTAINED RELEASE FIBERS” (INVISTA TEXTILES (U.K.) LIMITED, priority 2016, published 2019).

Legend:
fleas and ticks = details: literature

O=C(Oc1ccccc1)c1ccccc1O [phenyl salicylate]
duration of efficacy (dust mites; applied in a typical manner, i.e. topical application, at best): 3-4 months
effectiveness against dust mites (dust mites; literature): effective
effectiveness against fleas and ticks (fleas and ticks): effective
